Data on 98 molecules can be found in PubChem BioAssay AID2384 (Southern Research Specialized Biocontainment Screening …, 2010).

As usually defined, the IC50 is the concentration needed to halve the response being measured.

For this assay, the system named is S. typhi GFP reporter counter-screen, fluorescence, 4 h. The assay can be described thus: S. typhi counter-screen signal inhibition – fluorescence, 4 h, counter-screen for PhoP regulon inhibitor project, dose response (AID 2384). On the technique in general: The purpose of a counterscreen is to sort out artefacts and off-target activity.
For `O=C1CN(/N=C/c2ccc([N+](=O)[O-])o2)C(=O)N1`, the IC50 is 41.6 µM. In the case of `CN(CCOc1ccc(Cl)cc1)CC(O)c1ccccc1` (stereo not drawn), the IC50 is 126 µM.

With `COc1cc(/C=C2/C(=O)NN(c3ccc(F)cc3)C2=O)cc([N+](=O)[O-])c1O`, the IC50 was 62.6 µM. Turning to `Clc1ccc(OCCCNCc2ccccc2)c(Br)c1`, the IC50 is 28.4 µM. `O=C(N/N=C/c1cc([N+](=O)[O-])ccc1O)C(O)(c1ccccc1)c1ccccc1`: the IC50 was 54.9 µM. As for `COc1ccc(CNc2ncnc3c2[nH]c2ccccc23)cc1`, the IC50 is 150 µM. For the molecule `CC(=O)NNC(=S)NC(=O)c1ccccc1`, the IC50 is 18 µM. Turning to `CCN(CC)c1ccc(CNc2nc3ccccc3n2C)cc1`, the IC50 was 81.6 µM.

`Oc1cc(Cl)ccc1Oc1ccc(Cl)cc1Cl`: the IC50 was under 0.55 µM. Consider `Fc1ccc(CCNCc2ccc(Cl)c(Cl)c2)cc1`, for which the IC50 is 36.6 µM. As for `CCCCCNc1nc(N2CCCC2)c2c(c1C#N)CCN(C)C2`, the concentration for half-maximal inhibition (IC50) was 36.3 µM. With `COc1cccc2c(=O)c(C(=O)O)c[nH]c12`, the IC50 is 113 µM. Consider `CN(C)CCCN1c2ccccc2Sc2ccccc21`, for which the 50% inhibitory concentration (IC50) is 40.1 µM.

In the case of `Clc1ccc(CN2C3=NCCN3c3ccccc32)cc1`, the IC50 was 42.8 µM. On to `CN(C)c1ccc(O)c2c1CC1CC3[C@@H](N(C)C)C(=O)C(C(N)=O)=C(O)[C@]3(O)C(=O)C1=C2O` (stereo partly drawn), for which the IC50 is 3.9 µM. Take `OC(CN1CCCCC1)Cn1c2ccccc2c2cc(Br)ccc21` (stereo not drawn): the IC50 is 37.8 µM. Regarding `c1ccc(CN2CCC(Nc3nc(-c4ccccc4)nc4ccccc34)CC2)cc1`, the IC50 is 38 µM. Regarding `COc1ccc(NC(=O)c2[nH]ncc2[N+](=O)[O-])cc1`, the 50% inhibitory concentration (IC50) was 133 µM. Under `Oc1ccc(COCc2ccccc2)c2cccnc12` stands 29.2 µM; under `CCCCC(=O)NC(=S)NNC(=O)CC`, 62.2 µM. Regarding `CCCCCCCCC1=NCCc2c1[nH]c1ccccc21`, the 50% inhibitory concentration (IC50) was 78.4 µM. On to `O=[N+]([O-])c1cc(Cl)cc(/C=N/NC(=S)Nc2ccc(S(=O)(=O)N3CCOCC3)cc2)c1O`, for which the IC50 is 51 µM. Take `CN1CCN(c2c(F)cc3c(=O)c(C(=O)O)cn4c3c2OCN4C)CC1`: the IC50 is under 0.55 µM. For `CCCCCCCCCCCCCCCC[N+](C)(C)CCN(Cc1ccc(OC)cc1)c1ncccn1`, the IC50 is 19.1 µM. In the case of `O=C(N/N=C\C=C\c1ccc([N+](=O)[O-])o1)c1cccs1`, the IC50 was 11 µM. Consider `O/N=C/c1ccc(OCc2ccccc2)c(Cl)c1`, for which the IC50 is 103 µM. Next, `NCC/C=C1/c2ccccc2CSc2ccccc21`: 146 µM; `O=C(N/N=C/c1ccc([N+](=O)[O-])o1)C(O)c1ccccc1` (stereo not drawn): 37.4 µM; `O=C(Nc1c(Cl)ccc2nsnc12)c1ccc([N+](=O)[O-])o1`: 137 µM. For `O=C(N/N=C/c1ccccc1O)C1SCCCS1`, the IC50 is 72.9 µM. In the case of `CNCC[C@H](Oc1cccc2ccccc12)c1cccs1`, the IC50 was 48.1 µM.

Consider `Cc1nc2ccccn2c1C(=O)N/N=C/c1ccc([N+](=O)[O-])o1`, for which the IC50 is 42.6 µM. Regarding `COc1cc(CNCCc2c[nH]c3ccccc23)ccc1OCc1ccccc1F`, the IC50 is 70.8 µM. With `O=C(CCN1CCN(C(=O)c2ccccc2)CC1)c1ccc(Br)cc1`, the IC50 was 81.6 µM.

Turning to `Cc1cccc(Nc2c3c(nc4ccccc24)CCC3)c1`, the IC50 was 60.3 µM. For `CN(C)C1C(=O)C(C(N)=O)=C(O)C2(O)C(=O)C3=C(O)c4c(O)cccc4C(C)(O)C3C(O)C12` (stereo not drawn), the IC50 is 0.83 µM. Under `O=C(Nc1ccc(Cc2ccncc2)cc1)c1ccc([N+](=O)[O-])o1` stands 126 µM.

Regarding `COc1c(N2CCN(C(=S)NC3CC4CCC3C4)C(C)C2)c(F)cc2c(=O)c(C(=O)O)cn(C3CC3)c12` (stereo not drawn), the IC50 is 44.1 µM. Regarding `Clc1cccc(/C=N\Nc2nccs2)c1`, the IC50 was 15.8 µM. Under `CC[C@H]1OC(=O)[C@H](C)[C@@H](O[C@H]2C[C@@](C)(OC)[C@@H](O)[C@H](C)O2)[C@H](C)[C@@H](O[C@@H]2O[C@H](C)C[C@H](N(C)C)[C@H]2O)[C@](C)(O)C[C@@H](C)[C@@H]2N[C@@H](COCCOC)O[C@H]([C@H]2C)[C@]1(C)O` stands 5.52 µM; under `O=C(CSc1nc2ccccc2[nH]1)Nc1ccc(F)c(F)c1`, 74.2 µM.

On to `Cc1ccccc1Nc1cc(C)c2c(O)cccc2n1`, for which the IC50 is 21.9 µM. `Nc1cc(Cl)c2nonc2c1[N+](=O)[O-]`: the IC50 was 32.6 µM. For `c1ccc(-c2nc3ccccc3[nH]2)cc1`, the IC50 is 93.5 µM. Next, `O=c1[nH]c(-c2ccccn2)nc(C(F)(F)F)c1Br`: 51.3 µM; `COc1ccccc1NC(=O)CN1CCC(c2nc3ccc(C)cc3[nH]2)CC1`: 143 µM; `Cc1ccc(OCC(O)Cn2c(=N)n(CCN3CCCCC3)c3ccccc32)cc1` (stereo not drawn): 13.4 µM.

In the case of `CCn1cc(C(=O)NCCCN(C)C)c(=O)c2cc(F)c(N3CCN(C)CC3)cc21`, the IC50 was 96.4 µM. Under `CC12CN3CC(C)(CN(C1)C3c1ccc(Br)cc1O)C2` (stereo not drawn) stands 143 µM; under `CCCCn1c(=N)n(CC(=O)c2ccc(Br)s2)c2ccccc21`, 45.1 µM. As for `CN1CCN(CC(=O)N2CCn3c4c(c5cc(C6CCCCC6)ccc53)CCCC42)CC1` (stereo not drawn), the IC50 was 36.9 µM. Next, `O=C(Nc1nnc(-c2ccccn2)o1)c1cccc(Cl)c1`: 91.9 µM; `CN1CCCN(S(=O)(=O)c2ccc3ccccc3c2)CC1`: 46 µM; `CC1(CC(=O)N/N=C/c2cc([N+](=O)[O-])c(O)cc2O)OCCO1`: 74 µM. Consider `O=C(Nc1cccc(NC(=O)c2ccccc2Cl)c1)c1ccc([N+](=O)[O-])o1`, for which the concentration for half-maximal inhibition (IC50) was 100 µM. On to `Cc1nc(N)nc(N)c1CCCc1ccc(Cl)c(Cl)c1`, for which the concentration for half-maximal inhibition (IC50) was 31.5 µM. Under `C/C(=N\NC(=O)c1ccc(Cl)cc1)c1ccccn1` stands 28.9 µM.

For the molecule `CCCCCCCCCCCCCCCCn1cc[n+](C)c1`, the half-maximal inhibitory concentration (IC50) is 34.8 µM.

As to `Cc1ccc(Cn2c(=N)n(CC(O)COc3ccccc3)c3ccccc32)cc1` (stereo not drawn), the IC50 is 37.9 µM. For the molecule `O=C(Nc1nnc(C(F)(F)F)s1)c1ccc(Br)s1`, the IC50 was 137 µM.

With `O=C(CNC(=O)c1cccc(F)c1)N/N=C/c1ccc([N+](=O)[O-])s1`, the IC50 is 36.9 µM. Under `CCc1ccc(N2CC(C(=O)N/N=C/c3cc([N+](=O)[O-])ccc3O)CC2=O)cc1` (stereo not drawn) stands 48.7 µM; under `CN1CCN(c2nc3cc(C(F)(F)F)ccc3n3cccc23)CC1`, 42.4 µM; under `CCCOc1ccc(C(=O)NNC(=S)NC(=O)CC)cc1`, 28.7 µM.

On to `CCn1nc(C(=O)O)c(=O)c2cc3c(cc21)OCO3`, for which the IC50 was 84.1 µM. Turning to `Cc1ccc2oc(=O)c(/C=C(\O)c3ccccc3)nc2c1`, the IC50 was 64.2 µM. With `CCCCCCCCCCOC(=O)Cn1c(COc2ccc(C)cc2)[n+](C)c2ccccc21`, the IC50 is 18.3 µM.

For `CCCCCCOc1ccc(CN2CCN(CC)CC2)cc1`, the IC50 was 100 µM. Regarding `CO[C@@]1(NC(=O)C2SC(=C(C(N)=O)C(=O)O)S2)C(=O)N2C(C(=O)O)=C(CSc3nnnn3C)CS[C@@H]21` (stereo partly drawn), the IC50 was 10.3 µM. With `Cc1ccc(O)c(Nc2c3ccccc3nc3ccccc23)c1`, the IC50 was 50.2 µM. Next, `CC[C@H]1OC(=O)[C@H](C)[C@@H](O[C@H]2C[C@@](C)(OC)[C@@H](O)[C@H](C)O2)[C@H](C)[C@@H](O[C@@H]2O[C@H](C)C[C@H](N(C)C)[C@H]2O)[C@](C)(O)C[C@@H](C)CN(C)[C@H](C)[C@@H](O)[C@]1(C)O`: 1.28 µM. In the case of `Nc1nc(Nc2ccc(Cl)cc2)nc2ccccc12`, the IC50 was 17 µM. On to `CCCN1CCC(NCc2cn(C)nc2-c2ccc(Oc3ccccc3)cc2)CC1`, for which the IC50 was 85.4 µM.

As to `NC(=O)SCC(=O)Nc1cccc(Cl)c1`, the IC50 is 60.9 µM. As to `O=C(/C=C/c1ccco1)NC(=S)NNC(=O)c1ccco1`, the IC50 is 90.8 µM. Consider `CC(NCC(O)COc1ccc2ccccc2c1)c1ccccc1` (stereo not drawn), for which the IC50 is 58.4 µM. On to `Oc1ccc(/C=N/N=C(c2ccccc2)c2ccccc2)c(O)c1O`, for which the IC50 was 33.6 µM. Consider `C#CCOCCOCCOCCNc1nc(N2CCN(C(=O)CCCCCCCCCCNC(=O)[C@H](CCCCN)n3cc(CCO)nn3)CC2)nc(N2CCN(C(=O)CCCCCCCCCCNC(=O)[C@H](CCCN=C(N)N)n3cc(C[C@@H](C)CC)nn3)CC2)n1`, for which the half-inhibitory concentration (IC50) was 18.1 µM.

For `CN(C)CCNC(=O)/C(=C/c1ccc(-c2ccc(Cl)cc2)o1)NC(=O)c1ccccc1`, the IC50 was 63.1 µM. Regarding `O=C(N/N=C/c1ccccn1)c1ccc(Br)o1`, the IC50 was 45.1 µM. For `O=S(=O)(Nc1c(S(=O)(=O)c2ccccc2)c2nc3ccccc3nc2n1C1CCCCC1)c1ccccc1`, the IC50 was 5.67 µM. As to `O=C(Cc1cccs1)N/N=C\c1ccc([N+](=O)[O-])s1`, the IC50 is 50.9 µM. Consider `CC(C)(C)c1ccc(OCCCNC2CCCC2)cc1`, for which the 50% inhibitory concentration (IC50) was 77.7 µM. For `CNC(=S)N1CCN(c2c(F)cc3c(=O)c(C(=O)O)cn(C4CC4)c3c2OC)CC1C` (stereo not drawn), the IC50 is 48.2 µM. With `Nc1nc(Nc2cccc(F)c2)nc2ccccc12`, the IC50 was 22.5 µM. As for `COc1cccc(/C=N/NC(=O)c2ccoc2C)c1O`, the IC50 was 139 µM. Next, `O=C(Nc1csc(Cl)c1)c1ccccc1`: 70.6 µM; `COc1cc(Br)cc(C=Nc2cccc(C(F)(F)F)c2)c1O`: 73.8 µM. For `Oc1ccc(C[C@@H]2CNCCN2CCC23CC4CC(CC(C4)C2)C3)cc1`, the IC50 is 40.6 µM. Under `O=C(NC(=S)NNC(=O)c1ccco1)c1ccc(Br)cc1` stands 76.2 µM; under `O=C(NC(=S)NNC(=O)c1ccccc1O)c1ccco1`, 25.8 µM; under `CCCCCCCCNc1ncnc2ccccc12`, 33.2 µM. In the case of `Oc1c(Br)cc(Br)cc1C=NCc1ccccc1`, the IC50 is 40.4 µM. As to `Clc1ccc(C(c2ccccc2)N2CCNCC2)cc1` (stereo not drawn), the IC50 is 97.5 µM. Consider `OCCCNc1c2ccccc2nc2ccccc12`, for which the concentration for half-maximal inhibition (IC50) was 109 µM.

For `Fc1ccc(CCNCc2ccccc2Cl)cc1`, the IC50 was 83.2 µM. Take `CCn1cc(C(=O)O)c(=O)c2cc(F)c(N3CCN(C(=O)Nc4ccccc4)CC3)cc21`: the IC50 was 50.8 µM. Next, `C#CCOCCOCCOCCNc1nc(N2CCN(C(=O)[C@H](Cc3cc4ccccc4[nH]3)n3cc([C@@H](N)C(C)CC)nn3)CC2)nc(N2CCN(C(=O)[C@H](Cc3cc4ccccc4[nH]3)n3cc([C@@H](N)Cc4ccc(O)cc4)nn3)CC2)n1` (stereo partly drawn): 18.5 µM.
